# Source: patent US6737383B1, “Herbicidal oxadiazolidines” (priority 1999, dated 2004)
# Experiments:
# bedstraw = assay: Test B pre/postemergence bedstraw; format: in vivo, Galium aparine
# Procedure, shortened: (§1)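 Test chemicals in a non-phytotoxic solvent mixture with surfactant were sprayed preemergence onto planted seeds and postemergence onto plants 2 to 18 cm tall (1- to 4-leaf stage). After twelve to sixteen days in a greenhouse, injury was visually rated against untreated controls from 0 (no effect) to 10 (complete control).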
# blackgrass = assay: Test B pre/postemergence blackgrass; format: in vivo, Alopecurus myosuroides
# Procedure, shortened: as §1
# surinam grass = assay: Test B pre/postemergence surinam grass; format: in vivo, Brachiaria decumbens
# Procedure, shortened: as §1
# cocklebur = assay: Test B pre/postemergence cocklebur; format: in vivo, Xanthium strumarium
# Procedure, shortened: as §1
# crabgrass = assay: Test B pre/postemergence crabgrass; format: in vivo, Digitaria sanguinalis
# Procedure, shortened: as §1
# giant foxtail = assay: Test B pre/postemergence giant foxtail; format: in vivo, Setaria faberii
# Procedure, shortened: as §1
# morningglory = assay: Test B pre/postemergence morningglory; format: in vivo, Ipomoea hederacea
# Procedure, shortened: as §1
# pigweed = assay: Test B pre/postemergence pigweed; format: in vivo, Amaranthus retroflexus
# Procedure, shortened: as §1
# soybean = assay: Test B pre/postemergence soybean; format: in vivo, Glycine max
# Procedure, shortened: as §1
# velvetleaf = assay: Test B pre/postemergence velvetleaf; format: in vivo, Abutilon theophrasti
# Procedure, shortened: as §1
# wheat = assay: Test B pre/postemergence wheat; format: in vivo, Triticum aestivum
# Procedure, shortened: as §1
# wild oat = assay: Test B pre/postemergence wild oat; format: in vivo, Avena fatua
# Procedure, shortened: as §1
# purple nutsedge = assay: Test B pre/postemergence purple nutsedge; format: in vivo, Cyperus rotundus
# Procedure, shortened: as §1
# rice = assay: Test B flood test rice; format: in vivo, Oryza sativa
# Procedure, shortened: (§2)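 Read-out is a visual response score from 0 (no effect) to 10 (complete control), assigned by comparison with untreated controls. Treatment was applied at the 2-leaf stage, and plants stayed in the greenhouse for twelve to sixteen days before scoring.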
# smallflower flatsedge = assay: Test B flood test smallflower flatsedge; format: in vivo, Cyperus difformis; settings: for S. Flatsedge plant response rating: scale of 0 to 10 where 0 is no effect and 10 is complete control
# Procedure, shortened: as §2
# bamyardgrass = assay: Test B flood test barnyardgrass; format: in vivo, Echinochloa crus-galli
# Procedure, shortened: as §2
# [1] = Postemergence, Rate 125 g/ha, scale of 0 to 10 where 0 is no effect and 10 is complete control
# [2] = Preemergence, Rate 62 g/ha, scale 0 to 10 (0 no effect, 10 complete control)
# [3] = Preemergence, Rate 125 g/ha, 0 is no effect, 10 is complete control
# [4] = Preemergence, Rate 250 g/ha, scale 0 to 10, 0 is no effect, 10 is complete control
# [5] = Preemergence, Rate 500 g/ha, scale 0 to 10 (0 no effect, 10 complete control)
# [6] = Rate 62 g/ha, Postemergence, scale of 0 to 10 where 0 is no effect and 10 is complete control
# [7] = Rate 250 g/ha, Postemergence, scale 0 to 10, 0 is no effect, 10 is complete control
# [8] = Rate 500 g/ha, Postemergence, scale 0 to 10
# [9] = Postemergence (flood test species), Rate 125 g/ha, scale of 0 to 10 where 0 is no effect and 10 is complete control
# [10] = Rate 31 g/ha, Postemergence section (flood test species), scale 0 to 10
# [11] = Rate 62 g/ha, Postemergence section, flood test species, scale of 0 to 10 where 0 is no effect and 10 is complete control
# [12] = Rate 250 g/ha, Postemergence (flood test), scale 0 to 10, 0 is no effect, 10 is complete control
smiles,measurement,setting,value
CC(C)N(C(=O)n1oc(=O)n(C)c1=O)c1ccc(Cl)cc1 [Compound 137],Bedstraw plant response rating,bedstraw; [1],8
same,Bedstraw plant response rating,bedstraw; [2],4
same,Bedstraw plant response rating (0 to 10 scale),bedstraw; [3],7
same,Bedstraw plant response rating,bedstraw; [4],7
same,Bedstraw plant response rating,bedstraw; [5],10
same,Bedstraw plant response rating,bedstraw; [6],4
same,"Plant response rating, Bedstraw",bedstraw; [7],8
same,Blackgrass plant response rating,blackgrass; [1],6
same,Blackgrass plant response rating,blackgrass; [2],7
same,Blackgrass plant response rating (0 to 10 scale),blackgrass; [3],9
same,Blackgrass plant response rating,blackgrass; [4],9
same,Blackgrass plant response rating,blackgrass; [5],10
same,Blackgrass plant response rating,blackgrass; [6],5
same,"Plant response rating, Blackgrass",blackgrass; [7],8
same,Blackgrass plant response rating,blackgrass; [8],8
same,B. signalgrass plant response rating,surinam grass; [1],4
same,B. signalgrass plant response rating,surinam grass; [2],3
same,B. signalgrass plant response rating (0 to 10 scale),surinam grass; [3],5
same,B. signalgrass plant response rating,surinam grass; [4],7
same,B. signalgrass plant response rating,surinam grass; [5],9
same,B. signalgrass plant response rating,surinam grass; [6],0
same,"Plant response rating, B. signalgrass",surinam grass; [7],5
same,B. signalgrass plant response rating,"surinam grass; Rate 500 g/ha, Postemergence, scale of 0 to 10 where 0 is no effect and 10 is complete control",8
same,Cocklebur plant response rating,cocklebur; [1],0
same,Cocklebur plant response rating,cocklebur; [2],0
same,Cocklebur plant response rating (0 to 10 scale),cocklebur; [3],0
same,Cocklebur plant response rating,cocklebur; [4],0
same,Cocklebur plant response rating,cocklebur; [5],0
same,Cocklebur plant response rating,cocklebur; [6],0
same,"Plant response rating, Cocklebur",cocklebur; [7],3
same,Cocklebur plant response rating,cocklebur; [8],4
same,Crabgrass plant response rating,crabgrass; [1],8
same,Crabgrass plant response rating,crabgrass; [2],8
same,Crabgrass plant response rating (0 to 10 scale),crabgrass; [3],10
same,Crabgrass plant response rating,crabgrass; [4],10
same,Crabgrass plant response rating,crabgrass; [5],10
same,Crabgrass plant response rating,crabgrass; [6],7
same,"Plant response rating, Crabgrass",crabgrass; [7],9
same,Crabgrass plant response rating,crabgrass; [8],9
same,Giant foxtail plant response rating,giant foxtail; [1],8
same,Giant foxtail plant response rating,giant foxtail; [2],8
same,Giant foxtail plant response rating (0 to 10 scale),giant foxtail; [3],9
same,Giant foxtail plant response rating,giant foxtail; [4],10
same,Giant foxtail plant response rating,giant foxtail; [5],10
same,Giant foxtail plant response rating,giant foxtail; [6],8
same,"Plant response rating, Giant foxtail",giant foxtail; [7],9
same,Giant foxtail plant response rating,giant foxtail; [8],9
same,Morningglory plant response rating,morningglory; [1],7
same,Morningglory plant response rating,morningglory; [2],0
same,Morningglory plant response rating (0 to 10 scale),morningglory; [3],0
same,Morningglory plant response rating,morningglory; [4],0
same,Morningglory plant response rating,morningglory; [5],1
same,Morningglory plant response rating,morningglory; [6],7
same,"Plant response rating, Morningglory",morningglory; [7],7
same,Morningglory plant response rating,morningglory; [8],8
same,Redroot pigweed plant response rating,pigweed; [1],4
same,Redroot pigweed plant response rating,pigweed; [2],9
same,Redroot pigweed plant response rating (0 to 10 scale),pigweed; [3],10
same,Redroot pigweed plant response rating,pigweed; [4],10
same,Redroot pigweed plant response rating,pigweed; [5],10
same,Redroot pigweed plant response rating,pigweed; [6],2
same,"Plant response rating, Redroot pigweed",pigweed; [7],5
same,Redroot pigweed plant response rating,pigweed; [8],6
same,Soybean plant response rating,soybean; [1],6
same,Soybean plant response rating,soybean; [2],0
same,Soybean plant response rating (0 to 10 scale),soybean; [3],0
same,Soybean plant response rating,soybean; [4],3
same,Soybean plant response rating,soybean; [5],5
same,Soybean plant response rating,soybean; [6],5
same,"Plant response rating, Soybean",soybean; [7],7
same,Soybean plant response rating,soybean; [8],8
same,Velvetleaf plant response rating,velvetleaf; [1],0
same,Velvetleaf plant response rating,velvetleaf; [2],3
same,Velvetleaf plant response rating (0 to 10 scale),velvetleaf; [3],6
same,Velvetleaf plant response rating,velvetleaf; [4],7
same,Velvetleaf plant response rating,velvetleaf; [5],10
same,Velvetleaf plant response rating,velvetleaf; [6],0
same,"Plant response rating, Velvetleaf",velvetleaf; [7],4
same,Velvetleaf plant response rating,velvetleaf; [8],5
same,Wheat plant response rating,wheat; [1],0
same,Wheat plant response rating,wheat; [2],0
same,Wheat plant response rating (0 to 10 scale),wheat; [3],4
same,Wheat plant response rating,wheat; [4],5
same,Wheat plant response rating,wheat; [5],5
same,Wheat plant response rating,wheat; [6],0
same,"Plant response rating, Wheat",wheat; [7],5
same,Wheat plant response rating,wheat; [8],6
same,Wild oats plant response rating,wild oat; [1],2
same,Wild oats plant response rating,wild oat; [2],5
same,Wild oats plant response rating (0 to 10 scale),wild oat; [3],8
same,Wild oats plant response rating,wild oat; [4],9
same,Wild oats plant response rating,wild oat; [5],10
same,Wild oats plant response rating,wild oat; [6],1
same,"Plant response rating, Wild oats",wild oat; [7],4
same,Wild oats plant response rating,wild oat; [8],5
same,Nutsedge plant response rating,purple nutsedge; [1],0
same,Nutsedge plant response rating,purple nutsedge; [2],0
same,Nutsedge plant response rating (0 to 10 scale),purple nutsedge; [3],0
same,Nutsedge plant response rating,purple nutsedge; [4],0
same,Nutsedge plant response rating,purple nutsedge; [6],0
same,"Plant response rating, Nutsedge",purple nutsedge; [7],3
same,Nutsedge plant response rating,purple nutsedge; [8],4
same,Rice plant response rating,rice; [9],0
same,Rice plant response rating,rice; [10],0
same,Rice plant response rating,rice; [11],0
same,"Plant response rating, Rice",rice; [12],0
same,S. Flatsedge plant response rating,"smallflower flatsedge; Postemergence (flood test species), Rate 125 g/ha",0
same,S. Flatsedge plant response rating,"smallflower flatsedge; Rate 62 g/ha, Postemergence section, flood test species",0
same,"Plant response rating, S. Flatsedge",smallflower flatsedge; [12],0
same,Barnyardgrass plant response rating,bamyardgrass; [9],0
same,Barnyardgrass plant response rating,bamyardgrass; [10],0
same,Barnyardgrass plant response rating,bamyardgrass; [11],0
same,"Plant response rating, Barnyardgrass",bamyardgrass; [12],0
